Source: paper PMC9750858, “Rapid biosensor development using plant hormone receptors as reprogrammable scaffolds” (Nature Biotechnology, 2022)
Numbering of substitutions follows the chain as printed. pEC50: −log10 of the molar value. Where “and” joins values, the source holds several entries; their conditions need not be identical. Identical values can stand only once.

Experiments:
PYR1^WIN / ΔN-HAB1 = molecular target: T1, PYR1^WIN / ΔN-HAB1 (Arabidopsis thaliana, UniProt O49686, A160I/D26G/E4G/F159A/K59Q/Y23H); experiment: Ligand/receptor-mediated PP2C (ΔN-HAB1 phosphatase) inhibition, fluorogenic substrate, PYR1^WIN; type: biochemical
T1 construct: 6xHis (N); made in house; host or cells: E. coli BL21 (DE3) pLysS
T1 sequence (O49686 with tags, fused parts or gaps E4G/Y23H/D26G/K59Q/F159A/A160I): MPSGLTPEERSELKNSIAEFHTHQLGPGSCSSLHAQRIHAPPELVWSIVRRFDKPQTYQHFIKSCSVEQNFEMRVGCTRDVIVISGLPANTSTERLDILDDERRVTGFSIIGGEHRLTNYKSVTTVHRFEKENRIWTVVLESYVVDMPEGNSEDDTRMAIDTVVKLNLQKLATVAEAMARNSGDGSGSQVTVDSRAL
Description: Coding sequences of the cannabinoid sensors were cloned into the protein expression vector pET28a to encode 6×His-tag-receptor fusions. Constructs were sequenced and transformed into the BL21 (DE3) pLysS E. coli strain for heterologous expression with IPTG (1 mM), followed by purification, using affinity chromatography, as previously reported. In vitro validation of evolved sensors was performed by using recombinant sensors and ΔN-HAB1 (HAB1 Δ1–178, ref. [36]) proteins, as previously described. […] Cannabinoid concentration curves ranged from 4 to 10,000 nM, and median inhibitory concentrations for PP2C inhibition were obtained via fluorescent measurement in the presence of 1 mM 4-methylumbelliferyl phosphate.

PYR1^WIN-M = molecular target: T2, PYR1^WIN-M (Arabidopsis thaliana, UniProt O49686, A160I/D26G/E4G/F159A/H60P/K59Q/N90S/Y23H); experiment: ELISA-like plate assay, immobilized PYR1^WIN-M, biotinylated ΔN-HAB1^T+; type: binding; conditions: for ELISA signal generation, receptor cross-reactivity (source data): replicates, 212
T2 construct: made in house
T2 sequence (O49686 with tags, fused parts or gaps E4G/Y23H/D26G/K59Q/H60P/N90S/F159A/A160I): T1 sequence (O49686 with tags, fused parts or gaps E4G/Y23H/D26G/K59Q/F159A/A160I) with H60P, N90S

PYR1^WIN [1] = molecular target: T3, PYR1^WIN (Arabidopsis thaliana, UniProt O49686, A160I/D26G/E4G/F159A/K59Q/Y23H); experiment: Split NanoLuc luciferase complementation in yeast, NLuc^N-PYR1^WIN/NLuc^C-ΔN-HAB1; type: cell-based; parameters: >PYR1-WIN; expressed in transfected cells; host or cells: Saccharomyces cerevisiae; conditions: for LUM, split luciferase luminescence (Fig. 3c source data): replicates
T3 sequence (Q9CAJ0 179-511, one chain of several): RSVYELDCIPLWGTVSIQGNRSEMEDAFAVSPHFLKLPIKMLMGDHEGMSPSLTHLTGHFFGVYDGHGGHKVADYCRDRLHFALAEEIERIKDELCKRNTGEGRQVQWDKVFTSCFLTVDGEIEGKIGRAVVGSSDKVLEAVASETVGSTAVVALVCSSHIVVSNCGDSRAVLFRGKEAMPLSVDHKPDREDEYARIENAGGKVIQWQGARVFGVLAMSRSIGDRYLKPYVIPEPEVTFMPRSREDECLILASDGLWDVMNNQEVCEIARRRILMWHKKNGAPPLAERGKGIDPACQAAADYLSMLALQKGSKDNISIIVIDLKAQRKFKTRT

PYR1^WIN [2] = molecular target: T3, PYR1^WIN; experiment: Yeast transcriptional activation circuit Z4-PYR1/VP64-ΔN-HAB1, GFP reporter, PYR1^WIN; conditions: for whole-cell GFP fluorescence (Fig. 3b source data): 12 h, replicates
[3] = test system: PYR1-derived cannabinoid receptors (PYR1 mutants) binding HAB1

## Cc1c(C(=O)c2cccc3ccccc23)c2cccc3c2n1C(CN1CCOCC1)CO3 (single isomer, unassigned; (+)) [WIN, (+)-WIN 55,212-2]
PYR1^WIN / ΔN-HAB1
  pEC50: 7.14
PYR1^WIN / ΔN-HAB1; [Ligand] 0.004115 uM, replicates, 0.004115 µM
  inhibition of ΔN-HAB1 phosphatase activity relative to mock (Fig. 3a source data): -0.3447 and 3.327 and 8.558
PYR1^WIN / ΔN-HAB1; [Ligand] 0.012346 uM, replicates, 0.012346 µM
  inhibition of ΔN-HAB1 phosphatase activity relative to mock (Fig. 3a source data): 13.6846 and 17.5801
PYR1^WIN / ΔN-HAB1; [Ligand] 0.012346 uM, replicates, read-out: inhibition of ΔN-HAB1 phosphatase activity relative to mock (Fig. 3a source data)
  inhibition at 0.012346 µM: 13.7%
PYR1^WIN / ΔN-HAB1; [Ligand] 0.037037 uM, replicates, 0.037037 µM
  inhibition of ΔN-HAB1 phosphatase activity relative to mock (Fig. 3a source data): 27.3559 and 29.1117
PYR1^WIN / ΔN-HAB1; [Ligand] 0.037037 uM, replicates, read-out: inhibition of ΔN-HAB1 phosphatase activity relative to mock (Fig. 3a source data)
  inhibition at 0.037037 µM: 28.7%
PYR1^WIN / ΔN-HAB1; [Ligand] 0.111111 uM, replicates, 0.111111 µM
  inhibition of ΔN-HAB1 phosphatase activity relative to mock (Fig. 3a source data): 63.5233 and 58.9433
PYR1^WIN / ΔN-HAB1; [Ligand] 0.111111 uM, replicates, read-out: inhibition of ΔN-HAB1 phosphatase activity relative to mock (Fig. 3a source data)
  inhibition at 0.111111 µM: 61.1%
PYR1^WIN / ΔN-HAB1; [Ligand] 0.333333 uM, replicates, 0.333333 µM
  inhibition of ΔN-HAB1 phosphatase activity relative to mock (Fig. 3a source data): 83.1534 and 83.7629
PYR1^WIN / ΔN-HAB1; [Ligand] 0.333333 uM, replicates, read-out: inhibition of ΔN-HAB1 phosphatase activity relative to mock (Fig. 3a source data)
  inhibition at 0.333333 µM: 84.4%
PYR1^WIN / ΔN-HAB1; [Ligand] 1 uM, replicates, 1 µM
  inhibition of ΔN-HAB1 phosphatase activity relative to mock (Fig. 3a source data): 93.2666 and 92.7582
PYR1^WIN / ΔN-HAB1; [Ligand] 1 uM, replicates, read-out: inhibition of ΔN-HAB1 phosphatase activity relative to mock (Fig. 3a source data)
  inhibition at 1 µM: 93.4%
PYR1^WIN / ΔN-HAB1; [Ligand] 10 uM, replicates, 10 µM
  inhibition of ΔN-HAB1 phosphatase activity relative to mock (Fig. 3a source data): 93.1102 and 92.715
PYR1^WIN / ΔN-HAB1; [Ligand] 10 uM, replicates, read-out: inhibition of ΔN-HAB1 phosphatase activity relative to mock (Fig. 3a source data)
  inhibition at 10 µM: 97.6%
PYR1^WIN-M; cannabinoid at 2 nM
  ELISA signal generation, receptor cross-reactivity (source data): 1.487 and 1.277 and 1.151
PYR1^WIN-M; cannabinoid at 2 μM
  ELISA signal generation, receptor cross-reactivity (source data): 3.378 and 3.384 and 3.484
PYR1^WIN-M; saline, ligand 1e-6 uM
  ELISA absorbance signal (source data): 0.133 and 0.126 and 0.127
PYR1^WIN-M; saline, ligand 1e-5 uM
  ELISA absorbance signal (source data): 0.152 and 0.136 and 0.148
PYR1^WIN-M; saline, ligand 0.0001 uM
  ELISA absorbance signal (source data): 0.162 and 0.157 and 0.179
PYR1^WIN-M; saline, ligand 0.001 uM
  ELISA absorbance signal (source data): 0.26 and 0.252 and 0.274
PYR1^WIN-M; saline, ligand 0.01 uM
  ELISA absorbance signal (source data): 0.302 and 0.321 and 0.336
PYR1^WIN-M; saline, ligand 0.1 uM
  ELISA absorbance signal (source data): 0.327 and 0.325
PYR1^WIN-M; saline, ligand 1 uM
  ELISA absorbance signal (source data): 0.315 and 0.35 and 0.349
PYR1^WIN-M; saline, ligand 10 uM
  ELISA absorbance signal (source data): 0.341 and 0.349 and 0.35
PYR1^WIN-M; saliva, ligand 1e-6 uM
  ELISA absorbance signal (source data): 0.097 and 0.09 and 0.095
PYR1^WIN-M; saliva, ligand 1e-5 uM
  ELISA absorbance signal (source data): 0.096 and 0.098
PYR1^WIN-M; saliva, ligand 0.0001 uM
  ELISA absorbance signal (source data): 0.124 and 0.126 and 0.123
PYR1^WIN-M; saliva, ligand 0.001 uM
  ELISA absorbance signal (source data): 0.239 and 0.257 and 0.242
PYR1^WIN-M; saliva, ligand 0.01 uM
  ELISA absorbance signal (source data): 0.374 and 0.38 and 0.358
PYR1^WIN-M; saliva, ligand 0.1 uM
  ELISA absorbance signal (source data): 0.397 and 0.408 and 0.382
PYR1^WIN-M; saliva, ligand 1 uM
  ELISA absorbance signal (source data): 0.436 and 0.42 and 0.431
PYR1^WIN-M; serum, ligand 1e-6 uM
  ELISA absorbance signal (source data): 0.103 and 0.1 and 0.092
PYR1^WIN-M; serum, ligand 1e-5 uM
  ELISA absorbance signal (source data): 0.098 and 0.102
PYR1^WIN-M; serum, ligand 0.0001 uM
  ELISA absorbance signal (source data): 0.108 and 0.106 and 0.1
PYR1^WIN-M; serum, ligand 0.001 uM
  ELISA absorbance signal (source data): 0.141 and 0.195 and 0.127
PYR1^WIN-M; serum, ligand 0.01 uM
  ELISA absorbance signal (source data): 0.239 and 0.24
PYR1^WIN-M; serum, ligand 0.1 uM
  ELISA absorbance signal (source data): 0.319 and 0.268 and 0.325
PYR1^WIN-M; serum, ligand 1 uM
  ELISA absorbance signal (source data): 0.312 and 0.316 and 0.329
PYR1^WIN-M; urine, ligand 1e-6 uM
  ELISA absorbance signal (source data): 0.141 and 0.142 and 0.134
PYR1^WIN-M; urine, ligand 1e-5 uM
  ELISA absorbance signal (source data): 0.148 and 0.138
PYR1^WIN-M; urine, ligand 0.0001 uM
  ELISA absorbance signal (source data): 0.162 and 0.161 and 0.149
PYR1^WIN-M; urine, ligand 0.001 uM
  ELISA absorbance signal (source data): 0.248 and 0.231 and 0.225
PYR1^WIN-M; urine, ligand 0.01 uM
  ELISA absorbance signal (source data): 0.338 and 0.33 and 0.313
PYR1^WIN-M; urine, ligand 0.1 uM
  ELISA absorbance signal (source data): 0.356 and 0.348 and 0.341
PYR1^WIN-M; urine, ligand 1 uM
  ELISA absorbance signal (source data): 0.387 and 0.372 and 0.376
PYR1^WIN [1]
  pEC50: 7.25
PYR1^WIN [1]; [Ligand] 0.0001 uM
  LUM, split luciferase luminescence (Fig. 3c source data): 4.094 and 3.848 and 3.642
PYR1^WIN [1]; [Ligand] 0.001 uM
  LUM, split luciferase luminescence (Fig. 3c source data): 4.593 and 4.28 and 4.174
PYR1^WIN [1]; [Ligand] 0.01 uM
  LUM, split luciferase luminescence (Fig. 3c source data): 5.448 and 5.829 and 5.793
PYR1^WIN [1]; [Ligand] 0.1 uM
  LUM, split luciferase luminescence (Fig. 3c source data): 9.293 and 8.992 and 7.439
PYR1^WIN [1]; [Ligand] 1 uM
  LUM, split luciferase luminescence (Fig. 3c source data): 12.392 and 10.463 and 10.193
PYR1^WIN [1]; [Ligand] 10 uM
  LUM, split luciferase luminescence (Fig. 3c source data): 13.953 and 10.293 (2×)
PYR1^WIN [2]
  pEC50: 7.55
PYR1^WIN [2]; [Ligand] 0.0001 uM
  whole-cell GFP fluorescence (Fig. 3b source data): 1.509 and 1.618 and 1.562
PYR1^WIN [2]; [Ligand] 0.001 uM
  whole-cell GFP fluorescence (Fig. 3b source data): 1.581 and 1.833 and 1.779
PYR1^WIN [2]; [Ligand] 0.01 uM
  whole-cell GFP fluorescence (Fig. 3b source data): 2.798 and 2.733 and 2.756
PYR1^WIN [2]; [Ligand] 0.1 uM
  whole-cell GFP fluorescence (Fig. 3b source data): 4.085 and 3.967 and 4.046
PYR1^WIN [2]; [Ligand] 0.5 uM
  whole-cell GFP fluorescence (Fig. 3b source data): 4.169 and 4.494 and 4.506
PYR1^WIN [2]; [Ligand] 1 uM
  whole-cell GFP fluorescence (Fig. 3b source data): 4.972 and 4.595 and 4.6223
PYR1^WIN [2]; [Ligand] 5 uM
  whole-cell GFP fluorescence (Fig. 3b source data): 4.959 and 4.89 and 5.277
PYR1^WIN [2]; [Ligand] 10 uM
  whole-cell GFP fluorescence (Fig. 3b source data): 5.105 and 5.0049 and 4.874
PYR1^WIN [2]; [Ligand] 100 uM
  whole-cell GFP fluorescence (Fig. 3b source data): 4.986 and 5.066 and 4.884
[3]; clones from shuffled library CB-S1
  cannabinoid concentration to which CB-S1 library clones respond (as low as): 50 nM
[3]; selections conducted using a racemate
  stereoisomer recognized by the evolved WIN receptor: recognizes the biologically active (+)-WIN 55,212-2 stereoisomer
